Measurements taken from article PMC3404012, “N-Terminally Glutamate-Substituted Analogue of Gramicidin A as Protonophore and Selective Mitochondrial Uncoupler” (PLoS ONE, 2012).

Legend:
[1] = Dissipation of pH gradient in pyranine-loaded liposomes; conditions: 2 µg/ml peptide
Experimental: Figure 5 Dissipation of the pH gradient on membranes of pyranine-loaded liposomes by gA and [Glu1]gA (both 2 µg/ml). Inner liposomal pH was estimated from pyranine fluorescence intensity measured at 505 nm upon excitation at 455 nm. Nigericin (1 µM) was added at 400–420 s to equilibrate the pH. Control, a record without peptides.
The lumenal pH of the liposomes was assayed with pyranine as described in [11] by a slightly modified procedure of [63]. To prepare pyranine-loaded liposomes, lipids (5 mg egg yolk phosphatidylcholine and 1 mg cholesterol) in a chloroform suspension were dried in a round-bottom flask under a stream of nitrogen. The lipids were then resuspended in buffer (100 mM KCl, 20 mM MES, 20 mM MOPS, 20 mM Tricine titrated with KOH to pH 6.0) containing 0.5 mM pyranine. The suspension was vortexed and then freeze-thawed three times. Unilamellar liposomes were prepared by extrusion through 0.1-µm-pore size Nucleopore polycarbonate membranes using an Avanti Mini-Extruder. The unbound pyranine was then removed by passage through a Sephadex G-50 coarse column equilibrated with the same buffer solution. […] The pH was estimated from the intensities of fluorescence measured at 505 nm upon excitation at 455 nm, as monitored with the Panorama Fluorat 02 spectrofluorimeter. At the end of each recording, 1 µM nigericin was added to dissipate the remaining pH gradient.

[2] = system: rat liver mitochondria (inner mitochondrial membrane potential); assay: Mitochondrial membrane potential measured by safranine O fluorescence; conditions: for decrease of mitochondrial membrane potential: isolated rat liver mitochondria 0.4 mg/ml protein, 5 mM succinate + 1 µM rotenone, 5 nM (about 10 nanogram/ml) peptide, safranine O 10 µM, pH 7.4; for series of the uncoupling potency (relative drop in membrane potential, concentration dependence): isolated rat liver mitochondria, measured at 300 s after peptide addition, safranine O
Experimental: To assess the effect of gramicidin derivatives on the mitochondrial membrane potential, we assayed the latter with the potential-dependent dye safranine O. The fluorescence of this dye (at a high concentration) is known to drop with increasing the mitochondrial membrane potential and rise upon the addition of protonophores [42], [47].
Control, no other additions. gA, [Glu1]gA, [Glu3]gA, [Lys1]gA, and [Lys3]gA show traces after the addition of 5 nM (i.e. about 10 nanogram/ml) of a corresponding peptide at t = 0 s. Trace “excess [Glu1]gA” was measured with 1 µg/ml peptide. Panel B. Dose dependence of the effect of [Glu1]gA on mitochondrial membrane potential.
Experiments were performed on outbred white male rats (180–200 g) fed ad libitum. […] Rat liver mitochondria were isolated by differential centrifugation [60] in a medium containing 250 mM sucrose, 10 mM MOPS, 1 mM EGTA, and bovine serum albumin (0.1 mg/ml), pH 7.4. The final washing was preformed in the medium of the same composition. Protein concentration was determined using bicinchoninic acid as described in [61].
Safranine O (10 µM) was used as a membrane potential probe [42]. Fluorescence intensity at 580 nm (excitation at 520 nm) was measured with a Panorama Fluorat 02 spectrofluorimeter (Lumex, Russia). The medium for measurements contained 300 mM sucrose, 20 mM MOPS, 0.5 mM EDTA, 0.5 mg/ml BSA, pH 7.4. Mitochondrial protein concentration was 0.4 mg/ml.

[3] = Induction of electrical current across planar BLM with and without liposomes; conditions: for effect of liposomes on induction of BLM current: liposomes 1 µg/ml DPhPC, peptide and liposomes at one side, gA 2 nanogram/ml, [Glu1]gA 200 nanogram/ml, 100 mM KCl, 10 mM Tris, 10 mM MES, pH 7.0, 50 mV
From the text: The difference in efficacy of gA and [Glu1]gA described here in a variety of systems could be associated with different abilities of the peptides to redistribute between membrane structures and/or their diverse permeability through membranes. To cause a reduction of an electrical potential difference across the inner mitochondrial membrane, peptide molecules must penetrate through the outer membrane in the case of isolated mitochondria, and additionally through the plasma membrane in the case of cells. While encountering with a series of membrane structures, e.g. endosomes, on their way from the plasma to the mitochondrial membrane, peptides may undergo numerous cycles of membrane binding and desorption. To study such a process in a model system, we measured the effect of liposome addition on the time course of the induction of electrical current across a planar BLM by gA and [Glu1]gA. In these experiments we added liposomes and peptides at one side of BLM in order to mimic the addition of the peptides to mitochondria and cells.
Figure 7 Effect of liposomes (1 µg/ml DPhPC) on the induction of electrical current on planar lipid bilayer by gA (2 nanogram/ml, panel A) and [Glu1]gA (200 nanogram/ml, panel B). The peptides and liposomes were added at one side of the membrane. The solution was 100 mM KCl, 10 mM Tris, 10 mM MES, pH = 7.0, BLM voltage was 50 mV.
Planar bilayer lipid membranes (BLM) were formed from a 2% solution of diphytanoylphosphatidylcholine (DPhPC) (Avanti Polar Lipids, Alabaster, AL) in n-decane on a hole in a Teflon partition (0.5-mm diameter) separating two compartments of a cell containing aqueous buffer solutions [64].The electric current (I) was recorded under voltage-clamp conditions. […] The current measured by means of a patch-clamp amplifier (Warner Instruments, Hamden, CT, model BC-525C) was digitized using an NI-DAQmx (National Instruments, Austin, TX) and analyzed with a personal computer with the use of WinWCP Strathclyde Electrophysiology Software designed by J. Dempster (University of Strathclyde, UK).

[4] = system: lysosomes of rat kidney cells; assay: Lysosome integrity and pH gradient by Lysotracker Green; assay type: cell-based; conditions: 0.1 mg/ml peptide, 1 µM Lysotracker Green
Experimental: In further experiments, we tested the interaction of [Glu1]gA with lysosomes of rat kidney cells by using the dye Lysotracker Green known to accumulate in highly acidic interior of lysosomes. […] Thus, [Glu1]gA appeared to interact specifically with mitochondrial membranes leading to their partial depolarization.
Figure 4 Micrographs of rat kidney cell culture loaded with Lysotracker Green in the absence (A), and in the presence of 0.1 mg/ml (B) of [Glu1]gA.
Kidneys were excised aseptically from 3–7 day old rats, then homogenized and placed in balanced Hanks solution at pH 7.4. After several washes the dispensed tissue was placed in 0.1% collagenase and incubated for 20–30 min at 37°C. Large pieces were removed, and cells were sedimented by gentle centrifugation (50 g) for 3 min. The pellet was resuspended in DMEM/F-12 1:1 containing 10% fetal calf serum (FCS) and seeded in culture plates and glass-bottom dishes. Cells were cultivated in a CO2 (5%) incubator for 1–2 days before the experiments. The gA or [Glu1]gA solution was added to the cultured epithelial cells to appropriate concentration and incubated for 10 min at 37°C in DMEM/F-12 medium containing 10 mM Hepes-NaOH. […] To minimize the contribution of photo-induced mitochondria/cell damage to the relative fluorescence intensities, image analysis was performed on the average of the first four scans only. […]

[5] = Single-channel recordings on planar bilayer lipid membrane; conditions: DPhPC/decane BLM, 100 mM HCl; for single-channel conductance: from current histograms
Experimental: Proton channels formed by gA can be observed by measuring electric current across a planar bilayer lipid membrane (BLM), if the experiments are performed in the acidic pH range [19], [20], [26], [50]. Figure 6 presents typical recordings of fluctuations of transmembrane current induced by gA and [Glu1]gA (panels A and D of Fig. 6) which were obtained under the same conditions. The single-channel conductance of [Glu1]gA (150 pS) was close to that of gA (140 pS) as judged from the current histograms (panels B and E), while the single-channel lifetime of the analogue (about 16 ms as estimated from the exponential fit to open channel duration histogram, panel F of Fig. 6) was much shorter than that of gA (116 ms, panel C).
Figure 6 Single-channel recordings (A, D) and the corresponding current histograms (B, E) of gramicidin A ([…], A, B, and C) and [Glu1]gA (2 nanogram/ml, D, E, and F) at a voltage of 100 mV applied to the DPhPC/decane membrane. The solution was 100 mM HCl. (C, F) Open state duration histograms fitted by a single exponential with a time constant of 116 ms (C) and 16 ms (F). The records were filtered at 100 Hz (A, B, and C) or 1000 Hz (D, E, and F).
Planar bilayer lipid membranes (BLM) were formed from a 2% solution of diphytanoylphosphatidylcholine (DPhPC) (Avanti Polar Lipids, Alabaster, AL) in n-decane on a hole in a Teflon partition (0.5-mm diameter) separating two compartments of a cell containing aqueous buffer solutions [64].The electric current (I) was recorded under voltage-clamp conditions. Voltage was applied to BLMs with Ag-AgCl electrodes placed directly into the cell. The current measured by means of a patch-clamp amplifier (Warner Instruments, Hamden, CT, model BC-525C) was digitized using an NI-DAQmx (National Instruments, Austin, TX) and analyzed with a personal computer with the use of WinWCP Strathclyde Electrophysiology Software designed by J. Dempster (University of Strathclyde, UK).

[6] = system: rat kidney cell culture (renal tubular epithelium cells); assay type: cell-based
Experimental: (§1) In subsequent series of experiments, the uncoupling action of [Glu1]gA was tested in rat kidney cell culture loaded with the potential sensitive dye tetramethylrhodamine ethyl ester (TMRE). […] By contrast, the parent gA depolarized mitochondria in cells at substantially higher concentrations starting from 0.1 mg/ml (Fig. 2C). […] In particular, treatment with 50 µg/ml gA caused about 80% cell death, while [Glu1]gA provoked only about 15% cell death. […] The increased effective concentrations of the [Glu1]gA in cell culture with respect to those with isolated mitochondria (Fig. 1) could be attributed to poor peptide permeation through plasma membrane.
Confocal images of cultured renal cells loaded with TMRE in control (A) and after treatment with 0.01 mg/ml [Glu1]gA (B). Diagram (C) presents the mean intensity of TMRE fluorescence through 10 confocal images for each [Glu1]gA (solid bars) or gA (hatched bars) concentration.
Kidneys were excised aseptically from 3–7 day old rats, then homogenized and placed in balanced Hanks solution at pH 7.4. After several washes the dispensed tissue was placed in 0.1% collagenase and incubated for 20–30 min at 37°C. Large pieces were removed, and cells were sedimented by gentle centrifugation (50 g) for 3 min. The pellet was resuspended in DMEM/F-12 1:1 containing 10% fetal calf serum (FCS) and seeded in culture plates and glass-bottom dishes. Cells were cultivated in a CO2 (5%) incubator for 1–2 days before the experiments. The gA or [Glu1]gA solution was added to the cultured epithelial cells to appropriate concentration and incubated for 10 min at 37°C in DMEM/F-12 medium containing 10 mM Hepes-NaOH. Next, cells were incubated with 100 nM TMRE (Invitrogen, USA) or 1 µM Lysotracker Green (Invitrogen, USA) for 30 min followed by washing in DMEM/F-12. Then renal tubular epithelial cells were imaged with an LSM510 inverted confocal microscope (Carl Zeiss Inc., Jena, Germany). Analysis of fluorochrome incorporation was performed in glass-bottom dishes (MatTek Corp., USA) with excitation at 488 and 543 nm and emission collected at 510–530 and 560–590 nm, for Lysotracker and TMRE, correspondingly. To minimize the contribution of photo-induced mitochondria/cell damage to the relative fluorescence intensities, image analysis was performed on the average of the first four scans only. Images were processed using ImageJ software (NIH, Bethesda, MD, USA).

[7] = system: rat liver mitochondria; assay: Respiration of isolated mitochondria (Clark-type oxygen electrode); conditions: 25°C, pH 7.4, 100 nM = 200 nanogram/ml, data not shown
[8] = system: cultured renal tubular cells; assay: MTT cell viability test; assay type: cell-based; conditions: 24 h
Experimental: as §1
Figure 3 Viability of cultured renal cells according to the MTT test after 24 h treatment with appropriate concentration of [Glu1]gA or gA in culture medium without serum. Experiments were performed 2 times in which 10 wells per each concentration were analyzed.
Cell viability was evaluated by a widely used methyl thiazol tetrazolium (MTT) test. […] Then the dye solution was removed, 50 µl DMSO per well was added and absorbance at 540 nm was measured. Experiments were performed twice in which 10 wells per each concentration were analyzed.

## HCO-EGALAVVVWLWLWLW-NH(CH2)2OH [[Glu1]gA]
[1]
  rate of pH gradient dissipation (enhancement of liposome-entrapped pyranine fluorescence): slower than that provoked by the parent peptide gA
[2]
  decrease of mitochondrial membrane potential: most efficient in decreasing the mitochondrial membrane potential
  series of the uncoupling potency (relative drop in membrane potential, concentration dependence): [Glu1]gA > = gA > [Glu3]gA > [Lys3]gA > [Lys1]gA
[3]
  effect of liposomes on induction of BLM current: accelerated many fold the induction of the current
[3]; planar BLM, peptide added from one side of the membrane
  concentration required to induce current similar to that of gA, one-sided addition: about two orders of magnitude higher
[4]
  lysosome integrity and pH gradient across lysosomal membranes (Lysotracker fluorescence intensity): No change
[5]; 100 mV
  single-channel conductance: 150 pS
[5]; symmetrical addition
  concentration required to observe single channels, relative to gA: much higher (approx. by two orders of magnitude)
[6]; cells versus isolated mitochondria
  effective concentrations in cells relative to isolated mitochondria: higher in cells than in mitochondria by three orders of magnitude
[6]; mitochondria in cell culture
  depolarizing concentrations in cell culture relative to gA: by an order of magnitude lower than those of gA
[6]; rat kidney cell culture, 10 µg/ml (about 5 µM) peptide, 10 min at 37°C, then 100 nM TMRE 30 min
  decrease in the mitochondrial membrane potential (TMRE fluorescence): more than a two-fold decrease
[6]; rat kidney cells, 0.1 mg/ml peptide
  depolarization of mitochondria in cells: maximal depolarization of mitochondria
[7]
  concentration stimulating mitochondrial respiration up to the level of fully uncoupled respiration: higher than 100 nM

## HCO-KGALAVVVWLWLWLW-NH(CH2)2OH [[Lys1]gA]
[2]
  series of the uncoupling potency (relative drop in membrane potential, concentration dependence): [Glu1]gA > = gA > [Glu3]gA > [Lys3]gA > [Lys1]gA

## HCO-VGELAVVVWLWLWLW-NH(CH2)2OH [[Glu3]gA]
[2]
  series of the uncoupling potency (relative drop in membrane potential, concentration dependence): [Glu1]gA > = gA > [Glu3]gA > [Lys3]gA > [Lys1]gA

## HCO-VGKLAVVVWLWLWLW-NH(CH2)2OH [[Lys3]gA]
[2]
  series of the uncoupling potency (relative drop in membrane potential, concentration dependence): [Glu1]gA > = gA > [Glu3]gA > [Lys3]gA > [Lys1]gA

## gramicidin A [gA, reference compound]
[2]
  decrease of mitochondrial membrane potential: most efficient in decreasing the mitochondrial membrane potential
  series of the uncoupling potency (relative drop in membrane potential, concentration dependence): [Glu1]gA > = gA > [Glu3]gA > [Lys3]gA > [Lys1]gA
[3]
  effect of liposomes on induction of BLM current: somewhat slower in the presence of liposomes
[8]; 50 µg/ml peptide, DMEM/F12 without serum, 2 experiments, 10 wells per concentration
  cell death (MTT): about 80%
[8]; medium without serum
  concentration limit to which certain toxicity is seen (MTT): ≥ 100 ng/mL
[5]; 100 mV
  single-channel lifetime (open state duration, single-exponential time constant): 116 ms
  single-channel conductance: 140 pS
[6]; rat kidney cell culture, TMRE
  concentration from which mitochondria in cells are depolarized: ≥ 0.1 mg/mL
